In ChEMBL document CHEMBL1132922, “Corticotropin releasing factor (CRF) receptor modulators: progress and opportunities for new therapeutic agents” (J Med Chem, 2000):

What was measured:
[1] = Half life period when administered 1 mg/kg intravenously in rat; type: ADME, organism-based; design: dose 1 mg/kg, route intravenous; settings: in vivo, iv
[2] = Plasma administered 1 mg/kg intravenously in rat.; type: ADME, organism-based; design: dose 1 mg/kg, route intravenous; settings: iv
[3] = molecular target: T1, Corticotropin-releasing factor receptor 2 (Homo sapiens, UniProt Q13324); assay: Compound was tested for the binding affinity to human corticotropin releasing factor receptor (hCRF2)
T1 sequence (Q13324 whole entry): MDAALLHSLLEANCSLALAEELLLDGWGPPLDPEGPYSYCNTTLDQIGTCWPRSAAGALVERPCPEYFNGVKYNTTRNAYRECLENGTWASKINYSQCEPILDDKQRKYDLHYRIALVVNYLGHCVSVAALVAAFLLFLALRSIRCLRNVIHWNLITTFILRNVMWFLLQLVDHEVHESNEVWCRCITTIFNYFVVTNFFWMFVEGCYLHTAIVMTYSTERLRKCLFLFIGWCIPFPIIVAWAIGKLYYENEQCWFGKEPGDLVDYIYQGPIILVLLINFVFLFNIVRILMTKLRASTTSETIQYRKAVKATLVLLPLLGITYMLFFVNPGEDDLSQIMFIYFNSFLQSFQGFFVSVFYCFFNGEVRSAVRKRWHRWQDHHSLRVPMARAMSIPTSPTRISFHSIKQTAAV

[4] = molecular target: T2, Corticotropin-releasing factor receptor 1 (Homo sapiens, UniProt P34998); assay: Compound was tested for the binding affinity to human corticotropin releasing factor 1 (hCRF1) receptors.
T2 sequence (P34998 whole entry): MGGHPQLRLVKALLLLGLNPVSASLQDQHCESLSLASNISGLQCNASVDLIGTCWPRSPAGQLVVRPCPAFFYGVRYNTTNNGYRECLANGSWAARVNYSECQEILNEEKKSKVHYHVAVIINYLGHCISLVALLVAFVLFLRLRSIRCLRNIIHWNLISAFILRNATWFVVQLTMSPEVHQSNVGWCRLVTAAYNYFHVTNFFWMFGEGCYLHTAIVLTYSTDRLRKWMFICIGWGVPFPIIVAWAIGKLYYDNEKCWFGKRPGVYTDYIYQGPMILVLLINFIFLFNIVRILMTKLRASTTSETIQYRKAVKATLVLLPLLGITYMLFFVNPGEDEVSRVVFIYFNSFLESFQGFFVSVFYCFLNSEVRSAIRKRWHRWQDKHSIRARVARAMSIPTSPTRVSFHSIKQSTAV

[5] = molecular target: T2, Corticotropin-releasing factor receptor 1; assay: Antagonist potency in hCRF1 stimulated adenylate cyclase assay; type: functional
[6] = Compound was tested for the binding affinity to mouse Corticotropin releasing factor receptor 2 beta
[7] = molecular target: T3, Corticotropin releasing factor receptor (Rattus norvegicus, UniProt P47866+P35353); assay: Compound was tested for the binding affinity to rat ccorticotropin releasing factor receptor; type: protein assay
Rattus norvegicus [8] = organism: Rattus norvegicus; assay: Percent control value is reported, after studying ability to inhibit CRF-stimulated release of ACTH in rats; type: functional; design: scale not given: the % may be the effect or the level left
[9] = Pharmacokinetic profile (5 mg/kg) in rat for Oral bioavailability; type: ADME, organism-based; settings: in vivo
[10] = Oral bioavailability is reported, after administering 1 mg/kg (intravenously and orally ) to dogs; type: ADME, organism-based, Canis lupus familiaris; settings: dog, in vivo
[11] = molecular target: T2, Corticotropin-releasing factor receptor 1; assay: Compound was tested for the binding affinity to human corticotropin releasing factor receptor
[12] = molecular target: T2, Corticotropin-releasing factor receptor 1; assay: Inhibition of corticotropin releasing factor receptor mediated increase in cAMP level using HEK293 cells expressing h-CRF1 receptor; type: cell-based
[13] = (§1) oral pharmacokinetic parameter, Half-life period was reported in rats; type: ADME, organism-based; settings: rat, in vivo
[14] = oral pharmacokinetic parameter, Oral bioavailability was reported in dogs; type: ADME, organism-based, Canis lupus familiaris; settings: dog, in vivo
[15] = oral pharmacokinetic parameter, Oral bioavailability was reported in rats; type: ADME, organism-based; settings: rat, in vivo
[16] = oral pharmacokinetic parameter, Half-life period was reported in dogs; type: ADME, organism-based, Canis lupus familiaris; settings: dog, in vivo
[17] = oral pharmacokinetic parameter, Maximum concentration was reported in dogs; type: ADME, organism-based, Canis lupus familiaris; design: route oral; settings: dog, in vivo
[18] = as §1; type: ADME, organism-based; settings: rat, in vivo; remark: listed apart in the source
[19] = molecular target: T2, Corticotropin-releasing factor receptor 1; assay: Inhibition of corticotropin releasing factor receptor mediated increase in adenylate cyclase activity was evaluated
[20] = molecular target: T3, Corticotropin releasing factor receptor; assay: Effective concentration to inhibit CRF-mediated increase in adenylate cyclase; type: protein assay
[21] = molecular target: T3, Corticotropin releasing factor receptor; assay: (§2) Compound was tested for the binding affinity to rat corticotropin releasing factor receptor; type: protein assay
[22] = molecular target: T3, Corticotropin releasing factor receptor; assay: as §2; type: protein assay; remark: listed apart in the source
Rattus norvegicus [23] = organism: Rattus norvegicus; assay: Effective concentration to inhibit adenocorticotropic hormone (ACTH) release from primary cultures of rat pituitary cells.; type: functional, cell-based; settings: Pituitary gland cell
[24] = Compound was tested for the max. conc. when administered perorally(po) 30 mg/kg; type: ADME, organism-based; design: dose 30 mg/kg, route oral; settings: in vivo
[25] = Compound was tested for the max. conc. when administered intraperitoneally (ip) 30 mg/kg; type: ADME, organism-based; design: dose 30 mg/kg, route intraperitoneal; settings: in vivo
[26] = Compound was tested for bioavailability when administered intraperitoneally; type: ADME, organism-based; settings: eutheria, in vivo, ip
[27] = Compound was tested for bioavailability when administered perorally; type: ADME, organism-based; settings: eutheria, in vivo, po
[28] = molecular target: T3, Corticotropin releasing factor receptor; assay: Compound was tested for the binding affinity to rat Corticotropin releasing factor (rCRF) receptors; type: protein assay
Rattus norvegicus [29] = assay: Dose (ip) that completely reverses the r/h-CRF-enhanced acoustic startle of rats; type: functional
Rattus norvegicus [30] = organism: Rattus norvegicus; assay: 50% inhibitory concentration to antagonize ACTH secretion; type: functional; settings: read-out: ID50 (the source's name)

Work on `COCCN(CCOC)c1nc(C)nc2c1nnn2-c1ccc(C(C)C)cc1Br` yielded a half-life [1] of 7.6 h and a clearance [2] of 50 mL/min/kg.

With `CCCN(CCC)c1cc(C)nc2c(-c3ccc(OC)cc3OC)c(C)nn12` the Ki [3] was over 10000 nM, the Ki [4] was 2.8 nM and the EC50 [5] was 142 nM.

Work on `CO[C@@]12C(COC(N)=O)C3=C(C(=O)C(C)=C(NCCc4ccco4)C3=O)N1CC1NC12` (stereo partly specified) yielded a Ki [6] of 20 nM, a Ki [7] of 110 nM and a Control (Rattus norvegicus [8]) of 50%.

In the case of `CCN(c1nc(C)nc(N2CCOCC2)n1)c1c(Br)cc(OC)cc1OC.CS(=O)(=O)O`, the bioavailability [9] is reported as 20%.

With `COCC(COC)n1nnc2c(Nc3c(C)cc(C)cc3Cl)nc(C)cc21.CS(=O)(=O)O` the bioavailability [10] was 59%, the Ki [11] was 3.3 nM and the IC50 [12] was 75 nM.

Work on `COCC(COC)Nc1nc(C)nc2c(-c3ccc(Cl)cc3Cl)c(C)nn12` yielded a half-life [13] of 16.5 h, a bioavailability [14] of 50% and an F [15] of 36.7%. The half-life [16] was 33 h, the Cmax [17] was 240 nM and the half-life [18] was 16.5 h. It also gave an IC50 [19] of 82 nM and a Ki [11] of 1.8 nM.

Compound `CCCN(CC1CC1)c1nc(C)nc(Nc2c(Cl)cc(Cl)cc2Cl)c1Cl` has an EC50 [20] of 150 nM, a Ki [21] of over 10000 nM and a Ki [22] of 2 nM. For the same compound, the EC50 (Rattus norvegicus [23]) was 70 nM.

Work on `CCN(c1nc(C)cc(C)n1)c1c(Br)cc(OC)cc1OC` yielded a Cmax [24] of 366 nM, a Cmax [25] of 1880 nM and a bioavailability [26] of 26%. The bioavailability [27] was 4%.

Compound `Cc1cc(N2CCOCC2)c2ccn(-c3ccc(C(C)C)cc3Br)c2n1` has a Ki [28] of 28 nM.

Work on `CCCCN(CC)c1nc(C)nc2c1c(C)cn2-c1c(C)cc(C)cc1C.Cl` yielded a Dose (Rattus norvegicus [29]) of 17.8 mg/kg and an ED50 (Rattus norvegicus [30]) of 13 mg/kg.
